Source: the NIST ThermoML archive (doi:10.1016/j.jct.2017.02.025)
± gives the expanded uncertainty stated by the source.

Key:
[1] = Crystal; DTA
[2] = Molar enthalpy of transition or fusion; conditions: Crystal; DSC

For CCCCCCCCCCCCCCCCCCCCCCCCCCCCO [1-octacosanol], the Normal melting temperature [1] was 82.8 ± 1.1 °C and the “Molar enthalpy of transition or fusion” value [2] was 25.9 ± 0.598 kcal/mol.
